Reference: patent EP0433679A2, “Pharmaceutical compositions for inhibition of maillard's reaction” (Senju Pharmaceutical Co., Ltd., priority 1989, dated 1991)

Biological target: bovine serum albumine (Bos taurus, UniProt P02769)
Assay: Inhibition of furosine formation (non-enzymatic glycosylation of BSA by glucose, furosine determined by HPLC)
Details: 672 h, pH 7.3, read-out: Inhibition rate (%)
Experimental: The sample solutions were kept for 4 weeks at 37 °C, and the amount of furosine which was formed by non-enzymatic glycosylation was determined by HPLC according to the method of Schleicher et al. (J. Clin. Biochem., 19:81-87 (1981).] Thus, the sample solutions after reaction were dialyzed, and aliquots of 1 ml were lyophylized and then hydrolyzed by the addition of 1 ml of 6 N hydrochloric acid followed by heating at 100 °C for 20 hours. After removal of hydrochloric acid by evaporation, 1 ml of water was added to each sample, and the samples were subjected to filtration using a filter with the pore size of 0.45 µm. The filtrate was used as the sample for HPLC. ODS-120T (Toso) was used for the column and 7 mM phosphoric acid solution was used as the eluant. The absorbance peak whose ratio of peak area at 280 mm/254 mm was 3.9/1 was regarded as the peak corresponding to furosine.
Upon the area of the peak of furosine of each sample, the inhibition rate of furosine formation by the test compound was calculated as follows. Inhibition rate (%)=(c-d)+(c-n)×100 c; peak area of furosine of the control sample d; peak area of furosine of the test sample n; peak area of furosine of the normal sample

Chain of bovine serum albumine (P02769 25-607): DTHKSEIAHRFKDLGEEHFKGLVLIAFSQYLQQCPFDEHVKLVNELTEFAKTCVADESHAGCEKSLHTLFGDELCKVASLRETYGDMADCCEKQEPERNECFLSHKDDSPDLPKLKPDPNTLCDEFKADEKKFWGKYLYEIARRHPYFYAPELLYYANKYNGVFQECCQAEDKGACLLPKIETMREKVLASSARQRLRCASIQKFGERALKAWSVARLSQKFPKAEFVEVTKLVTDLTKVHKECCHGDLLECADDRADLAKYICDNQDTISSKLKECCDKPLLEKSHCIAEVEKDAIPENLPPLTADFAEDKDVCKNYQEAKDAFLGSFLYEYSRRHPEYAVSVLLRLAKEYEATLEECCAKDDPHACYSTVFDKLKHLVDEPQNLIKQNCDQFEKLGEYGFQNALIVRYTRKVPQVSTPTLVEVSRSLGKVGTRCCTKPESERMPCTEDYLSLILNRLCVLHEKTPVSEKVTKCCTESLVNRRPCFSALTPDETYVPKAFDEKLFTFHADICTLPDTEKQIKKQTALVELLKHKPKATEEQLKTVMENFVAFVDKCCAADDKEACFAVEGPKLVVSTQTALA

SMILES | inhibition at 5000 µM [%]
N=C(N)NN [Aminoguanidine, aminoguanidine, reference compound] | 7.5
Oc1ccc(O)c2c(O)cc(C(F)(F)F)nc12 [T-2] | 79.9
CCOC(=O)c1cnc2c(c1O)C(=O)C=CC2=O [T-8] | 96.9
O=C(O)c1cnc2c(c1O)C(=O)C=CC2=O [T-7] | 79.9
O=C(O)c1cc(O)c2c(n1)C(=O)C=CC2=O [T-6] | 76
O=C(O)c1cc(O)c2c(O)ccc(O)c2n1 [T-5] | 78.9
COC(=O)c1cc(O)c2c(n1)C(=O)C=CC2=O [T-4] | 92.5
O=c1ccc2[n+]([O-])c3ccc(O)cc3oc-2c1 [T-10, resazurin] | 73.8
O=C1C=CC(=O)c2c(O)cc(C(F)(F)F)nc21 [T-3] | 73.4
Cc1cc(O)c2c(n1)C(=O)C=CC2=O [T-9] | 99.5
O=C(O)c1cc(O)c2c(n1)C(=O)C=C(O)C2=O [T-1] | 77.8
